# According to ChEMBL document CHEMBL3217532, “New analyses of MIC90 data to aid antibacterial drug discovery” (2011):
# Key:
# Format in all cases: functional
# Pseudomonas aeruginosa [1] = experiment: Antimicrobial activity against Pseudomonas aeruginosa PA-4993
# Pseudomonas aeruginosa [2] = experiment: Antimicrobial activity against Pseudomonas aeruginosa PA-4990
# Pseudomonas aeruginosa [3] = experiment: Antimicrobial activity against Pseudomonas aeruginosa 1767-00
# Pseudomonas aeruginosa [4] = experiment: Antimicrobial activity against Pseudomonas aeruginosa 1768-00
# Pseudomonas aeruginosa [5] = experiment: Antimicrobial activity against Pseudomonas aeruginosa 1612-09
# Pseudomonas aeruginosa [6] = experiment: Antimicrobial activity against Pseudomonas aeruginosa 1512-08
# Pseudomonas aeruginosa [7] = experiment: Antimicrobial activity against Pseudomonas aeruginosa 1764-00
# Pseudomonas aeruginosa [8] = experiment: Antimicrobial activity against Pseudomonas aeruginosa 1760-00
# Pseudomonas aeruginosa [9] = experiment: Antimicrobial activity against Pseudomonas aeruginosa 1955-00
# Pseudomonas aeruginosa [10] = experiment: Antimicrobial activity against Pseudomonas aeruginosa 1521-08
# Pseudomonas aeruginosa [11] = experiment: Antimicrobial activity against Pseudomonas aeruginosa PA-4999
# Pseudomonas aeruginosa [12] = experiment: Antimicrobial activity against Pseudomonas aeruginosa 1752-00
# Pseudomonas aeruginosa [13] = experiment: Antimicrobial activity against Pseudomonas aeruginosa 1619-08
# Pseudomonas aeruginosa [14] = experiment: Antimicrobial activity against Pseudomonas aeruginosa 1753-00
# Pseudomonas aeruginosa [15] = experiment: Antimicrobial activity against Pseudomonas aeruginosa PA-4997
# Pseudomonas aeruginosa [16] = experiment: Antimicrobial activity against Pseudomonas aeruginosa 1527-08
# Pseudomonas aeruginosa [17] = experiment: Antimicrobial activity against Pseudomonas aeruginosa PA-4991
# Pseudomonas aeruginosa [18] = experiment: Antimicrobial activity against Pseudomonas aeruginosa 1567-05
# Pseudomonas aeruginosa [19] = experiment: Antimicrobial activity against Pseudomonas aeruginosa 1563-00
# Pseudomonas aeruginosa [20] = experiment: Antimicrobial activity against Pseudomonas aeruginosa PA-1757
# Pseudomonas aeruginosa [21] = experiment: Antimicrobial activity against Pseudomonas aeruginosa 1515-08
# Pseudomonas aeruginosa [22] = experiment: Antimicrobial activity against Pseudomonas aeruginosa 1561-05
# Pseudomonas aeruginosa [23] = experiment: Antimicrobial activity against Pseudomonas aeruginosa 1514-08
# Pseudomonas aeruginosa [24] = experiment: Antimicrobial activity against Pseudomonas aeruginosa 1761-00
# Pseudomonas aeruginosa [25] = experiment: Antimicrobial activity against Pseudomonas aeruginosa 1566-05
# Pseudomonas aeruginosa [26] = experiment: Antimicrobial activity against Pseudomonas aeruginosa 1611-09
# Pseudomonas aeruginosa [27] = experiment: Antimicrobial activity against Pseudomonas aeruginosa 1570-05
# Pseudomonas aeruginosa [28] = experiment: Antimicrobial activity against Pseudomonas aeruginosa 1562-05
# Pseudomonas aeruginosa [29] = experiment: Antimicrobial activity against Pseudomonas aeruginosa 1765-00
# Pseudomonas aeruginosa [30] = experiment: Antimicrobial activity against Pseudomonas aeruginosa 1952-00
# Pseudomonas aeruginosa [31] = experiment: Antimicrobial activity against Pseudomonas aeruginosa PA-4624
# Pseudomonas aeruginosa [32] = experiment: Antimicrobial activity against Pseudomonas aeruginosa 1569-05
# Pseudomonas aeruginosa [33] = experiment: Antimicrobial activity against Pseudomonas aeruginosa 1614-09
# Pseudomonas aeruginosa [34] = experiment: Antimicrobial activity against Pseudomonas aeruginosa 1513-08
# Pseudomonas aeruginosa [35] = experiment: Antimicrobial activity against Pseudomonas aeruginosa 1951-00
# Pseudomonas aeruginosa [36] = experiment: Antimicrobial activity against Pseudomonas aeruginosa 1956-00
# Pseudomonas aeruginosa [37] = experiment: Antimicrobial activity against Pseudomonas aeruginosa 1509-08
# Pseudomonas aeruginosa [38] = experiment: Antimicrobial activity against Pseudomonas aeruginosa 1954-00
# Pseudomonas aeruginosa [39] = experiment: Antimicrobial activity against Pseudomonas aeruginosa 1564-05
# Pseudomonas aeruginosa [40] = experiment: Antimicrobial activity against Pseudomonas aeruginosa 1957-00
# Pseudomonas aeruginosa [41] = experiment: Antimicrobial activity against Pseudomonas aeruginosa 1565-05
# Pseudomonas aeruginosa [42] = experiment: Antimicrobial activity against Pseudomonas aeruginosa 1615-09
# Pseudomonas aeruginosa [43] = experiment: Antimicrobial activity against Pseudomonas aeruginosa 1510-08
# Pseudomonas aeruginosa [44] = experiment: Antimicrobial activity against Pseudomonas aeruginosa PA-75
# Pseudomonas aeruginosa [45] = experiment: Antimicrobial activity against Pseudomonas aeruginosa 1568-05
# Pseudomonas aeruginosa [46] = experiment: Antimicrobial activity against Pseudomonas aeruginosa 1766-00
# Pseudomonas aeruginosa [47] = experiment: Antimicrobial activity against Pseudomonas aeruginosa PA-4995
# Pseudomonas aeruginosa [48] = experiment: Antimicrobial activity against Pseudomonas aeruginosa 1953-00
# Pseudomonas aeruginosa [49] = experiment: Antimicrobial activity against Pseudomonas aeruginosa 1613-09
# Pseudomonas aeruginosa [50] = experiment: Antimicrobial activity against Pseudomonas aeruginosa 1526-08
# Pseudomonas aeruginosa [51] = experiment: Antimicrobial activity against Pseudomonas aeruginosa 1523-08
smiles,measurement,setting,value
CC1(C)[C@H](NC(=O)/C(=N\OCc2cc(=O)c(O)cn2O)c2csc(N)n2)C(=O)N1OS(=O)(=O)O,MIC90,Pseudomonas aeruginosa [1],0.5 µg/mL
same,MIC90,Pseudomonas aeruginosa [2],0.5 µg/mL
same,MIC90,Pseudomonas aeruginosa [3],0.5 µg/mL
same,MIC90,Pseudomonas aeruginosa [4],0.5 µg/mL
same,MIC90,Pseudomonas aeruginosa [5],16 µg/mL
same,MIC90,Pseudomonas aeruginosa [6],0.5 µg/mL
same,MIC90,Pseudomonas aeruginosa [7],0.5 µg/mL
same,MIC90,Pseudomonas aeruginosa [8],1 µg/mL
same,MIC90,Pseudomonas aeruginosa [9],0.5 µg/mL
same,MIC90,Pseudomonas aeruginosa [10],2 µg/mL
same,MIC90,Pseudomonas aeruginosa [11],1 µg/mL
same,MIC90,Pseudomonas aeruginosa [12],1 µg/mL
same,MIC90,Pseudomonas aeruginosa [13],0.06 µg/mL
same,MIC90,Pseudomonas aeruginosa [14],4 µg/mL
same,MIC90,Pseudomonas aeruginosa [15],1 µg/mL
same,MIC90,Pseudomonas aeruginosa [16],1 µg/mL
same,MIC90,Pseudomonas aeruginosa [17],1 µg/mL
same,MIC90,Pseudomonas aeruginosa [18],0.5 µg/mL
same,MIC90,Pseudomonas aeruginosa [19],0.5 µg/mL
same,MIC90,Pseudomonas aeruginosa [20],8 µg/mL
same,MIC90,Pseudomonas aeruginosa [21],1 µg/mL
same,MIC90,Pseudomonas aeruginosa [22],2 µg/mL
same,MIC90,Pseudomonas aeruginosa [23],2 µg/mL
same,MIC90,Pseudomonas aeruginosa [24],4 µg/mL
same,MIC90,Pseudomonas aeruginosa [25],1 µg/mL
same,MIC90,Pseudomonas aeruginosa [26],0.125 µg/mL
same,MIC90,Pseudomonas aeruginosa [27],0.5 µg/mL
same,MIC90,Pseudomonas aeruginosa [28],1 µg/mL
same,MIC90,Pseudomonas aeruginosa [29],4 µg/mL
same,MIC90,Pseudomonas aeruginosa [30],1 µg/mL
same,MIC90,Pseudomonas aeruginosa [31],1 µg/mL
same,MIC90,Pseudomonas aeruginosa [32],1 µg/mL
same,MIC90,Pseudomonas aeruginosa [33],0.5 µg/mL
same,MIC90,Pseudomonas aeruginosa [34],1 µg/mL
same,MIC90,Pseudomonas aeruginosa [35],1 µg/mL
same,MIC90,Pseudomonas aeruginosa [36],0.5 µg/mL
same,MIC90,Pseudomonas aeruginosa [37],2 µg/mL
same,MIC90,Pseudomonas aeruginosa [38],0.25 µg/mL
same,MIC90,Pseudomonas aeruginosa [39],0.5 µg/mL
same,MIC90,Pseudomonas aeruginosa [40],0.25 µg/mL
same,MIC90,Pseudomonas aeruginosa [41],0.5 µg/mL
same,MIC90,Pseudomonas aeruginosa [42],1 µg/mL
same,MIC90,Pseudomonas aeruginosa [43],8 µg/mL
same,MIC90,Pseudomonas aeruginosa [44],0.5 µg/mL
same,MIC90,Pseudomonas aeruginosa [45],0.5 µg/mL
same,MIC90,Pseudomonas aeruginosa [46],0.5 µg/mL
same,MIC90,Pseudomonas aeruginosa [47],0.5 µg/mL
same,MIC90,Pseudomonas aeruginosa [48],1 µg/mL
same,MIC90,Pseudomonas aeruginosa [49],0.5 µg/mL
same,MIC90,Pseudomonas aeruginosa [50],0.5 µg/mL
same,MIC90,Pseudomonas aeruginosa [51],1 µg/mL
C[C@H]1[C@H](NC(=O)/C(=N\OC(C)(C)C(=O)O)c2csc(N)n2)C(=O)N1C(=O)NS(=O)(=O)n1nc(-c2cc(=O)c(O)c[nH]2)n(C)c1=O,MIC90,Pseudomonas aeruginosa [1],0.125 µg/mL
same,MIC90,Pseudomonas aeruginosa [2],0.5 µg/mL
same,MIC90,Pseudomonas aeruginosa [3],0.25 µg/mL
same,MIC90,Pseudomonas aeruginosa [4],0.125 µg/mL
same,MIC90,Pseudomonas aeruginosa [5],1 µg/mL
same,MIC90,Pseudomonas aeruginosa [6],0.5 µg/mL
same,MIC90,Pseudomonas aeruginosa [7],0.25 µg/mL
same,MIC90,Pseudomonas aeruginosa [8],0.5 µg/mL
same,MIC90,Pseudomonas aeruginosa [9],0.25 µg/mL
same,MIC90,Pseudomonas aeruginosa [10],1 µg/mL
same,MIC90,Pseudomonas aeruginosa [11],0.5 µg/mL
same,MIC90,Pseudomonas aeruginosa [12],0.5 µg/mL
same,MIC90,Pseudomonas aeruginosa [13],0.03 µg/mL
same,MIC90,Pseudomonas aeruginosa [14],0.5 µg/mL
same,MIC90,Pseudomonas aeruginosa [15],0.5 µg/mL
same,MIC90,Pseudomonas aeruginosa [16],0.5 µg/mL
same,MIC90,Pseudomonas aeruginosa [17],0.5 µg/mL
same,MIC90,Pseudomonas aeruginosa [18],0.25 µg/mL
same,MIC90,Pseudomonas aeruginosa [19],0.25 µg/mL
same,MIC90,Pseudomonas aeruginosa [20],8 µg/mL
same,MIC90,Pseudomonas aeruginosa [21],0.5 µg/mL
same,MIC90,Pseudomonas aeruginosa [22],1 µg/mL
same,MIC90,Pseudomonas aeruginosa [23],1 µg/mL
same,MIC90,Pseudomonas aeruginosa [24],1 µg/mL
same,MIC90,Pseudomonas aeruginosa [25],0.25 µg/mL
same,MIC90,Pseudomonas aeruginosa [26],0.125 µg/mL
same,MIC90,Pseudomonas aeruginosa [27],0.125 µg/mL
same,MIC90,Pseudomonas aeruginosa [28],0.25 µg/mL
same,MIC90,Pseudomonas aeruginosa [29],1 µg/mL
same,MIC90,Pseudomonas aeruginosa [30],0.25 µg/mL
same,MIC90,Pseudomonas aeruginosa [31],1 µg/mL
same,MIC90,Pseudomonas aeruginosa [32],0.5 µg/mL
same,MIC90,Pseudomonas aeruginosa [33],0.25 µg/mL
same,MIC90,Pseudomonas aeruginosa [34],1 µg/mL
same,MIC90,Pseudomonas aeruginosa [35],0.5 µg/mL
same,MIC90,Pseudomonas aeruginosa [36],0.125 µg/mL
same,MIC90,Pseudomonas aeruginosa [37],4 µg/mL
same,MIC90,Pseudomonas aeruginosa [38],0.06 µg/mL
same,MIC90,Pseudomonas aeruginosa [39],0.125 µg/mL
same,MIC90,Pseudomonas aeruginosa [40],0.125 µg/mL
same,MIC90,Pseudomonas aeruginosa [41],0.25 µg/mL
same,MIC90,Pseudomonas aeruginosa [42],0.25 µg/mL
same,MIC90,Pseudomonas aeruginosa [43],8 µg/mL
same,MIC90,Pseudomonas aeruginosa [44],0.5 µg/mL
same,MIC90,Pseudomonas aeruginosa [45],0.5 µg/mL
same,MIC90,Pseudomonas aeruginosa [46],0.5 µg/mL
same,MIC90,Pseudomonas aeruginosa [47],0.125 µg/mL
same,MIC90,Pseudomonas aeruginosa [48],0.25 µg/mL
same,MIC90,Pseudomonas aeruginosa [49],0.125 µg/mL
same,MIC90,Pseudomonas aeruginosa [50],0.25 µg/mL
same,MIC90,Pseudomonas aeruginosa [51],0.5 µg/mL
C[C@@H](O)[C@H]1C(=O)N2C(C(=O)O)=C(S[C@@H]3CN[C@H](C(=O)N(C)C)C3)[C@H](C)[C@H]12 [MEROPENEM],MIC90,Pseudomonas aeruginosa [1],> 64 µg/mL
same,MIC90,Pseudomonas aeruginosa [2],32 µg/mL
same,MIC90,Pseudomonas aeruginosa [3],0.5 µg/mL
same,MIC90,Pseudomonas aeruginosa [4],0.5 µg/mL
same,MIC90,Pseudomonas aeruginosa [5],16 µg/mL
same,MIC90,Pseudomonas aeruginosa [6],> 64 µg/mL
same,MIC90,Pseudomonas aeruginosa [7],2 µg/mL
same,MIC90,Pseudomonas aeruginosa [8],4 µg/mL
same,MIC90,Pseudomonas aeruginosa [9],1 µg/mL
same,MIC90,Pseudomonas aeruginosa [10],> 64 µg/mL
same,MIC90,Pseudomonas aeruginosa [11],8 µg/mL
same,MIC90,Pseudomonas aeruginosa [12],0.125 µg/mL
same,MIC90,Pseudomonas aeruginosa [13],4 µg/mL
same,MIC90,Pseudomonas aeruginosa [14],0.125 µg/mL
same,MIC90,Pseudomonas aeruginosa [15],64 µg/mL
same,MIC90,Pseudomonas aeruginosa [16],8 µg/mL
same,MIC90,Pseudomonas aeruginosa [17],8 µg/mL
same,MIC90,Pseudomonas aeruginosa [18],0.5 µg/mL
same,MIC90,Pseudomonas aeruginosa [19],2 µg/mL
same,MIC90,Pseudomonas aeruginosa [20],4 µg/mL
same,MIC90,Pseudomonas aeruginosa [21],32 µg/mL
same,MIC90,Pseudomonas aeruginosa [22],2 µg/mL
same,MIC90,Pseudomonas aeruginosa [23],> 64 µg/mL
same,MIC90,Pseudomonas aeruginosa [24],2 µg/mL
same,MIC90,Pseudomonas aeruginosa [25],0.5 µg/mL
same,MIC90,Pseudomonas aeruginosa [26],4 µg/mL
same,MIC90,Pseudomonas aeruginosa [27],0.25 µg/mL
same,MIC90,Pseudomonas aeruginosa [28],4 µg/mL
same,MIC90,Pseudomonas aeruginosa [29],2 µg/mL
same,MIC90,Pseudomonas aeruginosa [30],2 µg/mL
same,MIC90,Pseudomonas aeruginosa [31],0.25 µg/mL
same,MIC90,Pseudomonas aeruginosa [32],0.25 µg/mL
same,MIC90,Pseudomonas aeruginosa [33],4 µg/mL
same,MIC90,Pseudomonas aeruginosa [34],32 µg/mL
same,MIC90,Pseudomonas aeruginosa [35],0.06 µg/mL
same,MIC90,Pseudomonas aeruginosa [36],0.5 µg/mL
same,MIC90,Pseudomonas aeruginosa [37],> 64 µg/mL
same,MIC90,Pseudomonas aeruginosa [38],0.25 µg/mL
same,MIC90,Pseudomonas aeruginosa [39],2 µg/mL
same,MIC90,Pseudomonas aeruginosa [40],0.125 µg/mL
same,MIC90,Pseudomonas aeruginosa [41],0.5 µg/mL
same,MIC90,Pseudomonas aeruginosa [42],2 µg/mL
same,MIC90,Pseudomonas aeruginosa [43],> 64 µg/mL
same,MIC90,Pseudomonas aeruginosa [44],0.5 µg/mL
same,MIC90,Pseudomonas aeruginosa [45],0.5 µg/mL
same,MIC90,Pseudomonas aeruginosa [46],2 µg/mL
same,MIC90,Pseudomonas aeruginosa [47],16 µg/mL
same,MIC90,Pseudomonas aeruginosa [48],2 µg/mL
same,MIC90,Pseudomonas aeruginosa [49],0.25 µg/mL
same,MIC90,Pseudomonas aeruginosa [50],> 64 µg/mL
same,MIC90,Pseudomonas aeruginosa [51],64 µg/mL
